Experimental data reported in ChEMBL document CHEMBL4017496 (J Med Chem, 2017).
The source made the active and inactive calls. No cut-off for these calls is given here.

Tests used:
[1] = biological target: T1, Oxysterols receptor LXR-alpha (Homo sapiens) (UniProt Q13133); experiment: Binding affinity to human LXRalpha at 4 uM by TR-FRET assay
T1 sequence (whole entry): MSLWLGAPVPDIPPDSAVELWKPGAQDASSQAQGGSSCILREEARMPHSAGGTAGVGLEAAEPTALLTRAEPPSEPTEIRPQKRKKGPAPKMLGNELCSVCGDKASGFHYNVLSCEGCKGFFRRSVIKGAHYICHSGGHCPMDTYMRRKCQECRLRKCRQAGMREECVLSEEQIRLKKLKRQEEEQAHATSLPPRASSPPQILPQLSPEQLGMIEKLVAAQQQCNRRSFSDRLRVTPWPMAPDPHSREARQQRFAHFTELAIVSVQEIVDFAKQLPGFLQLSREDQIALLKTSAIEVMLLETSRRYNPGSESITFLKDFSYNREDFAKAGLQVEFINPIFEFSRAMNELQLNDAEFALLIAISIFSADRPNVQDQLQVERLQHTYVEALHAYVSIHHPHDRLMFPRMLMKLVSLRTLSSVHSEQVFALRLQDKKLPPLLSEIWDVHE

[2] = biological target: T2, Peroxisome proliferator-activated receptor gamma (Homo sapiens) (UniProt P37231); experiment: Transactivation of human PPARgamma expressed in African green monkey CV1 cells at 10 uM by luciferase reporter gene assay relative to control; assay type: cell-based
T2 sequence (whole entry): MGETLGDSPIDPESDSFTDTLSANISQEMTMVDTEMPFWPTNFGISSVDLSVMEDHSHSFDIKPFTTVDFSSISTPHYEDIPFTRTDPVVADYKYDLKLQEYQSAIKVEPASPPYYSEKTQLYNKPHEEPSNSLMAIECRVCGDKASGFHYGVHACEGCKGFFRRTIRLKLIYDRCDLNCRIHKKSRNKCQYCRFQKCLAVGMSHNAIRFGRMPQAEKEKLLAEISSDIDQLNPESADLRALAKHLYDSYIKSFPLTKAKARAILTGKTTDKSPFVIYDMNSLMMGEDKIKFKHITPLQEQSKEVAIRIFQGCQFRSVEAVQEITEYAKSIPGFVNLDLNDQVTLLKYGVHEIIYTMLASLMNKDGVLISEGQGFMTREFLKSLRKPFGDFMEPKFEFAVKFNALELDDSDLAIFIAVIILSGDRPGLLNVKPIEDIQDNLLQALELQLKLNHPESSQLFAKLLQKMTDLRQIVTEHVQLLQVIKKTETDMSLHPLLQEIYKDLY

[3] = biological target: T3, Cyclin-dependent kinase 5/CDK5 activator 1 (Homo sapiens) (UniProt Q00535+Q15078); experiment: Inhibition of human CDK5/p25 up to 20 uM using histone H1 as substrate after 40 mins in presence of [gamma32P]ATP by scintillation counting; assay type: protein-complex assay
Mus musculus [4] = experiment: Antidiabetic activity in STZ-induced diabetic C57BL/6J mouse assessed as insulin sensitivity by measuring reduction of serum triglyceride level at 20 mg/kg,po for 5 days; assay type: functional, organism-based
[5] = biological target: T4, Peroxisome proliferator-activated receptor alpha (Homo sapiens) (UniProt Q07869); experiment: Displacement of Fluormone-Pan-PPAR Green from human GST-tagged PPARalpha LBD at 4 uM by TR-FRET assay relative to control
T4 sequence (whole entry): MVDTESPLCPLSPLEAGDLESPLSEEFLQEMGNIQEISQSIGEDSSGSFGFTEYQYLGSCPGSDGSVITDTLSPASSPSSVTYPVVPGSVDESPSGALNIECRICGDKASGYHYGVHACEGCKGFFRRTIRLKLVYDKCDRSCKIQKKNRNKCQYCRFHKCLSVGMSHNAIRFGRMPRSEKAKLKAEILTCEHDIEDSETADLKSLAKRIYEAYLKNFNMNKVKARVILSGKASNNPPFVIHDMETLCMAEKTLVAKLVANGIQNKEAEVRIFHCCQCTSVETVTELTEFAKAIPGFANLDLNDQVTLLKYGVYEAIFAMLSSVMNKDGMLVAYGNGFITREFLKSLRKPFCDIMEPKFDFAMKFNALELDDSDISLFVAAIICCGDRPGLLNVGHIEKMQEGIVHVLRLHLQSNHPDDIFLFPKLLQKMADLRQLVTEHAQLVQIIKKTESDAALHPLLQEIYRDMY

[6] = biological target: T3, Cyclin-dependent kinase 5/CDK5 activator 1 (Homo sapiens); experiment: Inhibition of human CDK5/p35 up to 20 uM using histone H1 as substrate after 40 mins in presence of [gamma32P]ATP by scintillation counting; assay type: protein-complex assay
Mus musculus [7] = experiment: Antidiabetic activity in STZ-induced diabetic C57BL/6J mouse assessed as insulin sensitivity by measuring reduction of serum lactate level at 20 mg/kg,po for 5 days; assay type: functional, organism-based
[8] = biological target: T5, Peroxisome proliferator-activated receptor delta (Homo sapiens) (UniProt Q03181); experiment: Displacement of Fluormone-Pan-PPAR Green from human GST-tagged PPARdelta LBD at 4 uM by TR-FRET assay relative to control
T5 sequence (whole entry): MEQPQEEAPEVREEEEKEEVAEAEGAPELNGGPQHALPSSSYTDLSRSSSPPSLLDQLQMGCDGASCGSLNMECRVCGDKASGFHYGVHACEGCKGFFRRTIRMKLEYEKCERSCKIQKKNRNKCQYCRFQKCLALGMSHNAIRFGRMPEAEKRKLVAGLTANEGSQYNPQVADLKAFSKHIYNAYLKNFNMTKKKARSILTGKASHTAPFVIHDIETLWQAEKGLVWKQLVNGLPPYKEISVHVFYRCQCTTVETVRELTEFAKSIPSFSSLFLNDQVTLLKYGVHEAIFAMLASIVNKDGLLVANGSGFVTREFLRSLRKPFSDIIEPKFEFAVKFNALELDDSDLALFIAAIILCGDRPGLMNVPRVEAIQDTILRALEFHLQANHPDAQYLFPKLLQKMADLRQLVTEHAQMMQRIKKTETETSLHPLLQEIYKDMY

[9] = biological target: T5, Peroxisome proliferator-activated receptor delta (Homo sapiens); experiment: Displacement of Fluormone-Pan-PPAR Green from human GST-tagged PPARdelta LBD at 20 uM by TR-FRET assay relative to control
Mesenchymal stem cell = experiment: Induction of adipogenesis in human bone marrow-derived mesenchymal stem cells assessed as increase in the production of adiponectin measured on day 7 after 48 hrs by ELISA; assay type: functional, cell-based
Mus musculus [10] = experiment: Antidiabetic activity in STZ-induced diabetic C57BL/6J mouse assessed as insulin sensitivity by measuring reduction of serum glucose levels at 20 mg/kg,po for 5 days measured at 1 and 4 hrs post last dose; assay type: functional, organism-based
[11] = biological target: T5, Peroxisome proliferator-activated receptor delta (Homo sapiens); experiment: Displacement of Fluormone-Pan-PPAR Green from human GST-tagged PPARdelta LBD by TR-FRET assay

T3 sequence (Q00535 whole entry): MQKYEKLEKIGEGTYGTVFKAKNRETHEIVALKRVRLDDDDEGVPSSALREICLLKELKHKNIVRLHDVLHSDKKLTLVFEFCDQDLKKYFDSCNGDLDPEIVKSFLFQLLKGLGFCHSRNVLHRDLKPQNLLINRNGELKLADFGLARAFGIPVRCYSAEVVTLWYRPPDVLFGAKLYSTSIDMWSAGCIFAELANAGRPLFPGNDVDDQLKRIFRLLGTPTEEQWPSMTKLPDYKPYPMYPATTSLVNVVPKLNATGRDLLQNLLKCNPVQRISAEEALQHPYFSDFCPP
T3 sequence (Q15078 99-307 partner limits assumed): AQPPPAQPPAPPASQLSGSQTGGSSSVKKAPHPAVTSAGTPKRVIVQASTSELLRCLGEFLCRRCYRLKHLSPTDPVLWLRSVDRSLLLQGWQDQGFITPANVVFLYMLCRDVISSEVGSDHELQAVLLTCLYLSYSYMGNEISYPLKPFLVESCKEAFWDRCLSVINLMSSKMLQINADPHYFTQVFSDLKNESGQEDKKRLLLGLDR

## CNC(=O)[C@H]1O[C@@H](n2cnc3c(NCc4cccc(I)c4)ncnc32)[C@H](O)[C@@H]1O [IB-MECA]
[1]
  Activity: inactive
[2]
  Activity: 29.9%
[3]
  inhibition: inactive
Mus musculus [4]
  Activity: Active
[5]
  inhibition: inactive
[6]
  inhibition: inactive
Mus musculus [7]
  Activity: Active
[8]
  inhibition: 26%
[9]
  inhibition: 48.3%
Mesenchymal stem cell
  Activity: Dose-dependent effect
Mus musculus [10]
  Activity: Active
[11]
  inhibition: Dose-dependent effect
